Patent publication US8987195B2 (priority 2012, dated 2015)

Molecular target: HCV NS3/4A protease genotype 1b (Hepatitis C virus genotype 1b, UniProt P26663)
Experiment: HCV NS3/4A protease time-resolved fluorescence (TRF) assay, Ki against genotype 1b
Type: biochemical
Experimental: Measuring NS3/4A Inhibitory Activity (Ki) Against Genotype 1b, Against A156T Mutants and Against Genotype 3a
One assay for measuring inhibitory activity is HCV NS3 protease time-resolved fluorescence (TRF) assay as described below and in Mao et al., Anal. Biochem. 373:1-8, 2008 and International Patent Application Publication WO 2006/102087. A NS3 protease assay can be performed, for example, in a final volume of 20 μl assay buffer containing 50 mM HEPES, pH 7.5, 150 mM NaCl, 15% glycerol, 0.15% TRITON X-100, 10 mM DTT, and 0.1% PEG 8000. NS3 and NS4A protease is pre-incubated with various concentrations of inhibitors in DMSO for 30 min. The reaction is initiated by adding the TRF peptide substrate (final concentration 25 nM). NS3 mediated hydrolysis of the substrate was run for 2.5 hours at room temperature. Product fluorescence is detected using A Pherastar Plus plate reader (BMG) or Envision (Perkin Elmer Life and Analytical Sciences with excitation at 340 nm and emission at 615 nm using the appropriate delay time optimized for the europium fluorescence probe. Testing concentrations of different enzyme forms are selected to result in a signal to background ratio (S/B) of 10-30. IC50 values are derived using a standard four-parameter fit to the data. Ki values are derived from IC50 values using the following formula, IC50=Ki(1+[S]/KM), Eqn (1), where [S] is the concentration of substrate peptide in the reaction and KM is the Michaelis constant. See P. Gallinari et al., 38 BIOCHEM. 5620-32 (1999); P. Gallinari et al., 72 J. VIROL. 6758-69 (1998); M. Taliani et al., 240 ANAL. BIOCHEM. 60-67 (1996); Mao et al., Analytical Biochemistry 373: 1-8, 2008.
The assay described above was run against genotype 1b at a concentration of 0.2 nM, against A156T mutant strains at a concentration of 0.4 nM, and against genotype 3a at a concentration of 0.025 nM.

[1] = IC50 [gt-1b] (nM), NS3/4A genotype 1b, enzyme 0.2 nM, K+ salt
[2] = IC50 [gt-1b], NS3/4A protease TRF assay, genotype 1b enzyme 0.2 nM
[3] = IC50 [gt-1b], NS3/4A protease TRF assay, genotype 1b enzyme 0.2 nM, K+ salt

Question: `COc1ccc2nc(C)c3c(c2c1)CC[C@]1(C[C@H]2C(=O)N[C@]4(C(=O)NS(=O)(=O)C5(C)CC5)C[C@H]4/C=C\CCCCC[C@H](NC(=O)OC4(C)CCC4)C(=O)N2C1)O3` [Example 186, 1-methylcyclobutyl [(2R,6S,12Z,13aS,14aR,16aS)-9′-methoxy-5′-methyl-14a-{[(1-methylcyclopropyl)sulfonyl]carbamoyl}-5,16-dioxo-1,1′,2′,5,6,7,8,9,10,11,13a,14,14a,15,16,16a-hexadecahydrospiro[cyclopropa[e]pyrrolo[1,2-a][1,4]diazacyclopentadecine-2,3′-pyrano[2,3-c]quinolin]-6-yl]carbamate] was tested. Which IC50 [1] did it give?
Answer: The IC50 was 0.009 nM.

Question: `COc1ccc2nc(C)c3c(c2c1)CC[C@]1(C[C@H]2C(=O)N[C@]4(C(=O)NS(=O)(=O)C5(C)CC5)C[C@H]4/C=C\CCCCC[C@H](NC(=O)O[C@H](C)C(C)C)C(=O)N2C1)O3` [Example 214, (2R)-3-methylbutan-2-yl [(2R,6S,12Z,13aS,14aR,16aS)-9′-methoxy-5′-methyl-14a-{[(1-methylcyclopropyl)sulfonyl]carbamoyl}-5,16-dioxo-1,1′,2′,5,6,7,8,9,10,11,13a,14,14a,15,16,16a-hexadecahydrospiro[cyclopropa[e]pyrrolo[1,2-a][1,4]diazacyclopentadecine-2,3′-pyrano[2,3-c]quinolin]-6-yl]carbamate] was tested. Which IC50 [1] did it give?
Answer: Its IC50 is 0.005 nM.

Question: With `Cc1ccc2nc(C(F)(F)F)c3c(c2c1)CC[C@]1(C[C@H]2C(=O)N[C@]4(C(=O)NS(=O)(=O)C5(C)CC5)C[C@H]4/C=C\CCCCC[C@H](NC(=O)O[C@@H](C)C(C)C)C(=O)N2C1)O3` [Example 396, (2S)-3-methylbutan-2-yl [(2R,6S,12Z,13aS,14aR,16aS)-9′-methyl-14a-{[(1-methylcyclopropyl)sulfonyl]carbamoyl}-5,16-dioxo-5′-(trifluoromethyl)-1,1′,2′,5,6,7,8,9,10,11,13a,14,14a,15,16,16a-hexadecahydrospiro[cyclopropa[e]pyrrolo[1,2-a][1,4]diazacyclopentadecine-2,3′-pyrano[2,3-c]quinolin]-6-yl]carbamate] as the compound, how does the IC50 [2] read?
Answer: Its IC50 is 0.009 nM.

Question: With `Cc1nc2cc(F)c(F)cc2c2c1O[C@]1(CC2)C[C@H]2C(=O)N[C@]3(C(=O)NS(=O)(=O)C4(C)CC4)C[C@H]3/C=C\CCCCC[C@H](NC(=O)OC3CCCCC3)C(=O)N2C1` [Example 203, cyclohexyl [(2R,6S,12Z,13aS,14aR,16aS)-8′,9′-difluoro-5′-methyl-14a-{[(1-methylcyclopropyl)sulfonyl]carbamoyl}-5,16-dioxo-1,1′,2′,5,6,7,8,9,10,11,13a,14,14a,15,16,16a-hexadecahydrospiro[cyclopropa[e]pyrrolo[1,2-a][1,4]diazacyclopentadecine-2,3′-pyrano[2,3-c]quinolin]-6-yl]carbamate] as the compound, how does the IC50 [1] read?
Answer: Its IC50 is 0.015 nM.

Question: `COc1ccc2nc(C(F)(F)F)c3c(c2c1)[C@](C)(O)C[C@]1(C[C@H]2C(=O)N[C@]4(C(=O)NS(=O)(=O)C5(C)CC5)C[C@H]4/C=C\CCCCC[C@H](NC(=O)OCC(C)(C)C)C(=O)N2C1)O3` [Example 506, 2,2-dimethylpropyl [(1′R,2S,6S,12Z,13aS,14aR,16aS)-1′-hydroxy-9′-methoxy-1′-methyl-14a-{[(1-methylcyclopropyl)sulfonyl]carbamoyl}-5,16-dioxo-5′-(trifluoromethyl)-1,1′,2′,5,6,7,8,9,10,11,13a,14,14a,15,16,16a-hexadecahydrospiro[cyclopropa[e]pyrrolo[1,2-a][1,4]diazacyclopentadecine-2,3′-pyrano[2,3-c]quinolin]-6-yl]carbamate] was tested. Which IC50 [2] did it give?
Answer: The IC50 was 0.015 nM.

Question: How did the IC50 [2] turn out when `Cc1ccc2nc(C(F)(F)F)c3c(c2c1)CC[C@]1(C[C@H]2C(=O)N[C@]4(C(=O)NS(=O)(=O)C5(C)CC5)C[C@H]4/C=C\CCCCC[C@H](NC(=O)OCC(C)(C)C)C(=O)N2C1)O3` [Example 391, 2,2-dimethylpropyl [(2R,6S,12Z,13aS,14aR,16aS)-9′-methyl-14a-{[(1-methylcyclopropyl)sulfonyl]carbamoyl}-5,16-dioxo-5′-(trifluoromethyl)-1,1′,2′,5,6,7,8,9,10,11,13a,14,14a,15,16,16a-hexadecahydrospiro[cyclopropa[e]pyrrolo[1,2-a][1,4]diazacyclopentadecine-2,3′-pyrano[2,3-c]quinolin]-6-yl]carbamate] was run?
Answer: Its IC50 is 0.026 nM.

Question: With `COCCCOc1ccc2nc(C(F)(F)F)c3c(c2c1)CC[C@]1(C[C@H]2C(=O)N[C@]4(C(=O)NS(=O)(=O)C5(C)CC5)C[C@H]4/C=C\CCCCC[C@H](NC(=O)OC4(C)CCC4)C(=O)N2C1)O3` [Example 523, 1-methylcyclobutyl [(2R,6S,12Z,13aS,14aR,16aS)-9′-(3-methoxypropoxy)-14a-{[(1-methylcyclopropyl)sulfonyl]carbamoyl}-5,16-dioxo-5′-(trifluoromethyl)-1,1′,2′,5,6,7,8,9,10,11,13a,14,14a,15,16,16a-hexadecahydrospiro[cyclopropa[e]pyrrolo[1,2-a][1,4]diazacyclopentadecine-2,3′-pyrano[2,3-c]quinolin]-6-yl]carbamate] as the compound, how does the IC50 [3] read?
Answer: Its IC50 is 0.009 nM.

Question: `Cc1nc2cc(F)c(F)cc2c2c1O[C@]1(CC2)C[C@H]2C(=O)N[C@]3(C(=O)NS(=O)(=O)C4(C)CC4)C[C@H]3/C=C\CCCCC[C@H](NC(=O)OC3CCC3)C(=O)N2C1` [Example 204, cyclobutyl [(2R,6S,12Z,13aS,14aR,16aS)-8′,9′-difluoro-5′-methyl-14a-{[(1-methylcyclopropyl)sulfonyl]carbamoyl}-5,16-dioxo-1,1′,2′,5,6,7,8,9,10,11,13a,14,14a,15,16,16a-hexadecahydrospiro[cyclopropa[e]pyrrolo[1,2-a][1,4]diazacyclopentadecine-2,3′-pyrano[2,3-c]quinolin]-6-yl]carbamate] was tested. Which IC50 [1] did it give?
Answer: Its IC50 is 0.015 nM.

Question: How did the IC50 [3] turn out when `COc1ccc2nc(C(F)F)c3c(c2c1)CC[C@]1(C[C@H]2C(=O)N[C@]4(C(=O)NS(=O)(=O)C5(C)CC5)C[C@H]4/C=C\CCCCC[C@H](NC(=O)OCC4CCC4)C(=O)N2C1)O3` [Example 504, cyclobutylmethyl [(2R,6S,12Z,13aS,14aR,16aS)-5′-(difluoromethyl)-9′-methoxy-14a-{[(1-methylcyclopropyl)sulfonyl]carbamoyl}-5,16-dioxo-1,1′,2′,5,6,7,8,9,10,11,13a,14,14a,15,16,16a-hexadecahydrospiro[cyclopropa[e]pyrrolo[1,2-a][1,4]diazacyclopentadecine-2,3′-pyrano[2,3-c]quinolin]-6-yl]carbamate] was run?
Answer: The IC50 was 0.01 nM.

Question: How did the IC50 [1] turn out when `COc1ccc2nc(C)c3c(c2c1)CC[C@]1(C[C@H]2C(=O)N[C@]4(C(=O)NS(=O)(=O)C5(C)CC5)C[C@H]4/C=C\CCCCC[C@H](NC(=O)OC4(C5CC5)CC4)C(=O)N2C1)O3` [Example 212, 1,1′-bi(cyclopropyl)-1-yl [(2R,6S,12Z,13aS,14aR,16aS)-9′-methoxy-5′-methyl-14a-{[(1-methylcyclopropyl)sulfonyl]carbamoyl}-5,16-dioxo-1,1′,2′,5,6,7,8,9,10,11,13a,14,14a,15,16,16a-hexadecahydrospiro[cyclopropa[e]pyrrolo[1,2-a][1,4]diazcyclopentadecine-2,3′-pyrano[2,3-c]quinolin]-6-yl]carbamate] was run?
Answer: Its IC50 is 0.003 nM.

Question: How did the IC50 [1] turn out when `COc1ccc2nc(C)c3c(c2c1)CC[C@]1(C[C@H]2C(=O)N[C@]4(C(=O)NS(=O)(=O)C5(C)CC5)C[C@H]4/C=C\CCCCC[C@H](NC(=O)O[C@@H](C)C(C)C)C(=O)N2C1)O3` [Example 215, (2S)-3-methylbutan-2-yl [(2R,6S,12Z,13aS,14aR,16aS)-9′-methoxy-5′-methyl-14a-{[(1-methylcyclopropyl)sulfonyl]carbamoyl}-5,16-dioxo-1,1′,2′,5,6,7,8,9,10,11,13a,14,14a,15,16,16a-hexadecahydrospiro[cyclopropa[e]pyrrolo[1,2-a][1,4]diazacyclopentadecine-2,3′-pyrano[2,3-c]quinolin]-6-yl]carbamate] was run?
Answer: The IC50 was 0.005 nM.

Question: Which IC50 [3] does the source give for `CCc1nc2ccc(OCCN3CCOCC3)cc2c2c1O[C@]1(CC2)C[C@H]2C(=O)N[C@]3(C(=O)NS(=O)(=O)C4(C)CC4)C[C@H]3/C=C\CCCCC[C@H](NC(=O)OCC(C)(C)C)C(=O)N2C1` [Example 510, 2,2-dimethylpropyl {(2R,6S,12Z,13aS,14aR,16aS)-5′-ethyl-14a-{[(1-methylcyclopropyl)sulfonyl]carbamoyl}-9′-[2-(morpholin-4-yl)ethoxy]-5,16-dioxo-1,1′,2′,5,6,7,8,9,10,11,13a,14,14a,15,16,16a-hexadecahydrospiro[cyclopropa[e]pyrrolo[1,2-a][1,4]diazacyclopentadecine-2,3′-pyrano[2,3-c]quinolin]-6-yl}carbamate] here?
Answer: The IC50 was 0.004 nM.
